How the values were obtained:
Test in all cases: relative viability (nuclei count vs DMSO), 5 days (fraction); higher = more cells survive
[1] = tested on: A-427
Procedure, shortened: (§1)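 For relative viability, nuclei counts in treated wells were divided by those in vehicle wells. Lung cancer cell lines had been pin-tool dosed in 1536-well plates the day after seeding and cultured for 5 days, then fixed and stained in one step (final 0.05% Triton X-100, 1% formaldehyde, 1 ug/ml Hoechst) and imaged at 4×. Doses were one drug alone or a fixed anchor-drug dose plus five library-drug doses (not always all listed) in √10 steps, and values are duplicate-plate medians.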

[2] = tested on: HCC-15
Procedure, shortened: as §1

[3] = tested on: HCC-78
Procedure, shortened: as §1

[4] = tested on: HOP-62
Procedure, shortened: as §1

[5] = tested on: LC-2-ad
Procedure, shortened: as §1

[6] = tested on: LOU-NH91
Procedure, shortened: as §1

[7] = tested on: LXF-289
Procedure, shortened: as §1

[8] = tested on: NCI-H1734
Procedure, shortened: as §1

[9] = tested on: NCI-H1755
Procedure, shortened: as §1

[10] = tested on: NCI-H1792
Procedure, shortened: as §1

[11] = tested on: NCI-H1915
Procedure, shortened: as §1

[12] = tested on: NCI-H1975
Procedure, shortened: as §1

[13] = tested on: NCI-H2126
Procedure, shortened: as §1

[14] = tested on: NCI-H2228
Procedure, shortened: as §1

[15] = tested on: NCI-H2342
Procedure, shortened: as §1

[16] = tested on: NCI-H2347
Procedure, shortened: as §1

[17] = tested on: NCI-H358
Procedure, shortened: as §1

[18] = tested on: NCI-H460
Procedure, shortened: as §1

[19] = tested on: NCI-H522
Procedure, shortened: as §1

[20] = tested on: NCI-H647
Procedure, shortened: as §1

[21] = tested on: PC-3 [JPC-3]
Procedure, shortened: as §1

[22] = tested on: RERF-LC-KJ
Procedure, shortened: as §1

[23] = tested on: SK-LU-1
Procedure, shortened: as §1

[24] = tested on: SW 1573
Procedure, shortened: as §1

C[C@@H]1CN(CC(=O)Nc2ccc3c(c2)Cc2cccc(-c4cc(=O)cc(N5CCOCC5)o4)c2S3)C[C@H](C)O1 + CC(=O)c1c(C)c2cnc(Nc3ccc(N4CCNCC4)cn3)nc2n(C2CCCC2)c1=O [Palbociclib] (partner 0.5 µM)
relative viability ([1]; first compound 0.04 µM): 0.428 | relative viability ([1]; first compound 0.1265 µM): 0.531 | relative viability ([1]; first compound 0.4 µM): 0.537 | relative viability ([1]; first compound 4 µM): 0.593 | relative viability ([2]; first compound 0.04 µM): 0.706 | relative viability ([2]; first compound 0.1265 µM): 0.708 | relative viability ([2]; first compound 0.4 µM): 0.751 | relative viability ([2]; first compound 4 µM): 0.678 | relative viability ([3]; first compound 0.04 µM): 0.456 | relative viability ([3]; first compound 0.1265 µM): 0.458 | relative viability ([3]; first compound 0.4 µM): 0.48 | relative viability ([3]; first compound 4 µM): 0.487 | relative viability ([4]; first compound 0.04 µM): 0.398 | relative viability ([4]; first compound 0.1265 µM): 0.43 | relative viability ([4]; first compound 0.4 µM): 0.412 | relative viability ([4]; first compound 4 µM): 0.405 | relative viability ([5]; first compound 0.04 µM): 0.493 | relative viability ([5]; first compound 0.1265 µM): 0.465 | relative viability ([5]; first compound 0.4 µM): 0.466 | relative viability ([5]; first compound 4 µM): 0.419 | relative viability ([6]; first compound 0.04 µM): 0.536 | relative viability ([6]; first compound 0.1265 µM): 0.481 | relative viability ([6]; first compound 0.4 µM): 0.55 | relative viability ([6]; first compound 4 µM): 0.509 | relative viability ([7]; first compound 0.04 µM): 0.616 | relative viability ([7]; first compound 0.1265 µM): 0.617 | relative viability ([7]; first compound 0.4 µM): 0.613 | relative viability ([7]; first compound 4 µM): 0.549 | relative viability ([8]; first compound 0.04 µM): 0.386 | relative viability ([8]; first compound 0.1265 µM): 0.354 | relative viability ([8]; first compound 0.4 µM): 0.308 | relative viability ([8]; first compound 4 µM): 0.433 | relative viability ([9]; first compound 0.04 µM): 0.475 | relative viability ([9]; first compound 0.1265 µM): 0.449 | relative viability ([9]; first compound 0.4 µM): 0.432 | relative viability ([9]; first compound 4 µM): 0.399 | relative viability ([10]; first compound 0.04 µM): 0.61 | relative viability ([10]; first compound 0.1265 µM): 0.594 | relative viability ([10]; first compound 0.4 µM): 0.658 | relative viability ([10]; first compound 4 µM): 0.563 | relative viability ([11]; first compound 0.04 µM): 0.517 | relative viability ([11]; first compound 0.1265 µM): 0.526 | relative viability ([11]; first compound 0.4 µM): 0.507 | relative viability ([11]; first compound 4 µM): 0.311 | relative viability ([12]; first compound 0.04 µM): 0.578 | relative viability ([12]; first compound 0.1265 µM): 0.58 | relative viability ([12]; first compound 0.4 µM): 0.395 | relative viability ([12]; first compound 4 µM): 0.487 | relative viability ([13]; first compound 0.04 µM): 0.384 | relative viability ([13]; first compound 0.1265 µM): 0.343 | relative viability ([13]; first compound 0.4 µM): 0.348 | relative viability ([13]; first compound 4 µM): 0.334 | relative viability ([14]; first compound 0.04 µM): 0.993 | relative viability ([14]; first compound 0.1265 µM): 0.743 | relative viability ([14]; first compound 0.4 µM): 0.916 | relative viability ([14]; first compound 4 µM): 0.605 | relative viability ([15]; first compound 0.04 µM): 0.525 | relative viability ([15]; first compound 0.1265 µM): 0.556 | relative viability ([15]; first compound 0.4 µM): 0.496 | relative viability ([15]; first compound 4 µM): 0.455 | relative viability ([16]; first compound 0.04 µM): 0.377 | relative viability ([16]; first compound 0.1265 µM): 0.493 | relative viability ([16]; first compound 0.4 µM): 0.459 | relative viability ([16]; first compound 4 µM): 0.404 | relative viability ([17]; first compound 0.04 µM): 0.123 | relative viability ([17]; first compound 0.1265 µM): 0.132 | relative viability ([17]; first compound 0.4 µM): 0.12 | relative viability ([17]; first compound 4 µM): 0.127 | relative viability ([18]; first compound 0.04 µM): 0.271 | relative viability ([18]; first compound 0.1265 µM): 0.155 | relative viability ([18]; first compound 0.4 µM): 0.137 | relative viability ([18]; first compound 4 µM): 0.143 | relative viability ([19]; first compound 0.04 µM): 0.934 | relative viability ([19]; first compound 0.1265 µM): 0.839 | relative viability ([19]; first compound 0.4 µM): 1.06 | relative viability ([19]; first compound 4 µM): 0.972 | relative viability ([20]; first compound 0.04 µM): 0.376 | relative viability ([20]; first compound 0.1265 µM): 0.336 | relative viability ([20]; first compound 0.4 µM): 0.444 | relative viability ([20]; first compound 4 µM): 0.273 | relative viability ([21]; first compound 0.04 µM): 0.501 | relative viability ([21]; first compound 0.1265 µM): 0.515 | relative viability ([21]; first compound 0.4 µM): 0.535 | relative viability ([21]; first compound 4 µM): 0.477 | relative viability ([22]; first compound 0.04 µM): 1.03 | relative viability ([22]; first compound 0.1265 µM): 1.05 | relative viability ([22]; first compound 0.4 µM): 1.17 | relative viability ([22]; first compound 4 µM): 0.818 | relative viability ([23]; first compound 0.04 µM): 0.434 | relative viability ([23]; first compound 0.1265 µM): 0.372 | relative viability ([23]; first compound 0.4 µM): 0.367 | relative viability ([23]; first compound 4 µM): 0.387 | relative viability ([24]; first compound 0.04 µM): 0.501 | relative viability ([24]; first compound 0.1265 µM): 0.337 | relative viability ([24]; first compound 0.4 µM): 0.393 | relative viability ([24]; first compound 4 µM): 0.264
